From PubChem BioAssay (NCI)
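In this assay, cells in 96-well plates receive the compound at five concentrations for 48 hours. Endpoints are linearly interpolated between the surrounding concentrations. TGI denotes the concentration required for complete inhibition of growth.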

Legend:
Assay in all cases: inhibition of tumour cell growth, NCI panel, 48 h
SK-MEL-5 melanoma = test system: SK-MEL-5 melanoma
RPMI-8226 leukemia = test system: RPMI-8226 leukemia
SK-MEL-28 melanoma = test system: SK-MEL-28 melanoma
HS 578T breast = test system: HS 578T breast
SN12C renal = test system: SN12C renal
T-47D breast = test system: T-47D breast
786-0 renal = test system: 786-0 renal
SK-OV-3 ovarian = test system: SK-OV-3 ovarian
IGROV1 ovarian = test system: IGROV1 ovarian
A498 renal = test system: A498 renal
OVCAR-4 ovarian = test system: OVCAR-4 ovarian
OVCAR-8 ovarian = test system: OVCAR-8 ovarian
MOLT-4 leukemia = test system: MOLT-4 leukemia
MDA-N = test system: MDA-N
OVCAR-5 ovarian = test system: OVCAR-5 ovarian
HCC-2998 colon = test system: HCC-2998 colon
NCI-H23 lung = test system: NCI-H23 lung
PC-3 prostate = test system: PC-3 prostate
HOP-92 NSCLC = test system: HOP-92 NSCLC
MDA-MB-231 breast = test system: MDA-MB-231 breast
M14 melanoma = test system: M14 melanoma
LOX IMVI melanoma = test system: LOX IMVI melanoma
K-562 leukemia = test system: K-562 leukemia
U251 CNS = test system: U251 CNS
HOP-62 NSCLC = test system: HOP-62 NSCLC
DU-145 prostate = test system: DU-145 prostate
SNB-75 CNS = test system: SNB-75 CNS
SF-268 CNS = test system: SF-268 CNS
BT-549 breast = test system: BT-549 breast
SR leukemia = test system: SR leukemia
HCT-116 colon = test system: HCT-116 colon
NCI/ADR-RES ovarian = test system: NCI/ADR-RES ovarian
ACHN renal = test system: ACHN renal
NCI-H460 lung = test system: NCI-H460 lung
MDA-MB-435 = test system: MDA-MB-435
HL-60(TB) leukemia = test system: HL-60(TB) leukemia
RXF 393 renal = test system: RXF 393 renal
UACC-257 melanoma = test system: UACC-257 melanoma
SNB-19 CNS = test system: SNB-19 CNS
OVCAR-3 ovarian = test system: OVCAR-3 ovarian
KM12 colon = test system: KM12 colon
UACC-62 melanoma = test system: UACC-62 melanoma
CCRF-CEM leukemia = test system: CCRF-CEM leukemia
HCT-15 colon = test system: HCT-15 colon
COLO 205 colon = test system: COLO 205 colon
NCI-H226 lung = test system: NCI-H226 lung
SK-MEL-2 melanoma = test system: SK-MEL-2 melanoma
CAKI-1 renal = test system: CAKI-1 renal
A549 NSCLC = test system: A549 NSCLC
SW-620 colon = test system: SW-620 colon
HT29 colon = test system: HT29 colon
MALME-3M melanoma = test system: MALME-3M melanoma
MCF7 breast = test system: MCF7 breast
NCI-H522 lung = test system: NCI-H522 lung
EKVX NSCLC = test system: EKVX NSCLC
TK-10 renal = test system: TK-10 renal
SF-295 CNS = test system: SF-295 CNS
SF-539 CNS = test system: SF-539 CNS
UO-31 renal = test system: UO-31 renal

For `CCOC(=O)N1[C@@H]2CCC[C@@H]2C(=O)[C@@H]2CCC[C@@H]21`, which TGI (SK-MEL-5 melanoma) is on record?
Its TGI is greater than 100 µM.

And the TGI (RPMI-8226 leukemia)?
The TGI was greater than 100 µM.

And the TGI (SK-MEL-28 melanoma)?
Its TGI is greater than 100 µM.

What about the TGI (HS 578T breast) of the same molecule?
The TGI was greater than 100 µM.

What about the TGI (SN12C renal) of the same molecule?
The TGI was greater than 100 µM.

What about the TGI (T-47D breast) of the same molecule?
The TGI was greater than 100 µM.

What about the TGI (786-0 renal) of the same molecule?
Its TGI is greater than 100 µM.

What about the TGI (SK-OV-3 ovarian) of the same molecule?
Its TGI is greater than 100 µM.

What about the TGI (IGROV1 ovarian) of the same molecule?
The TGI was greater than 100 µM.

What about the TGI (A498 renal) of the same molecule?
The TGI was greater than 100 µM.

What about the TGI (OVCAR-4 ovarian) of the same molecule?
Its TGI is greater than 100 µM.

And the TGI (OVCAR-8 ovarian)?
Its TGI is greater than 100 µM.

What about the TGI (MOLT-4 leukemia) of the same molecule?
The TGI was greater than 100 µM.

And the TGI (MDA-N)?
The TGI was greater than 100 µM.

What about the TGI (OVCAR-5 ovarian) of the same molecule?
Its TGI is greater than 100 µM.

And the TGI (HCC-2998 colon)?
The TGI was greater than 100 µM.

And the TGI (NCI-H23 lung)?
Its TGI is greater than 100 µM.

And the TGI (PC-3 prostate)?
The TGI was greater than 100 µM.

What about the TGI (HOP-92 NSCLC) of the same molecule?
The TGI was greater than 100 µM.

What about the TGI (MDA-MB-231 breast) of the same molecule?
Its TGI is greater than 100 µM.

What about the TGI (M14 melanoma) of the same molecule?
The TGI was greater than 100 µM.

What about the TGI (LOX IMVI melanoma) of the same molecule?
The TGI was greater than 100 µM.

What about the TGI (K-562 leukemia) of the same molecule?
The TGI was greater than 100 µM.

What about the TGI (U251 CNS) of the same molecule?
Its TGI is greater than 100 µM.

And the TGI (HOP-62 NSCLC)?
Its TGI is greater than 100 µM.

And the TGI (DU-145 prostate)?
Its TGI is greater than 100 µM.

And the TGI (SNB-75 CNS)?
Its TGI is greater than 100 µM.

And the TGI (SF-268 CNS)?
Its TGI is greater than 100 µM.

What about the TGI (BT-549 breast) of the same molecule?
Its TGI is greater than 100 µM.

And the TGI (SR leukemia)?
Its TGI is greater than 100 µM.

What about the TGI (HCT-116 colon) of the same molecule?
The TGI was greater than 100 µM.

What about the TGI (NCI/ADR-RES ovarian) of the same molecule?
Its TGI is greater than 100 µM.

And the TGI (ACHN renal)?
Its TGI is greater than 100 µM.

What about the TGI (NCI-H460 lung) of the same molecule?
The TGI was greater than 100 µM.

And the TGI (MDA-MB-435)?
The TGI was greater than 100 µM.

And the TGI (HL-60(TB) leukemia)?
The TGI was greater than 100 µM.

And the TGI (RXF 393 renal)?
The TGI was greater than 100 µM.

What about the TGI (UACC-257 melanoma) of the same molecule?
Its TGI is greater than 100 µM.

What about the TGI (SNB-19 CNS) of the same molecule?
The TGI was greater than 100 µM.

And the TGI (OVCAR-3 ovarian)?
Its TGI is greater than 100 µM.

What about the TGI (KM12 colon) of the same molecule?
Its TGI is greater than 100 µM.

And the TGI (UACC-62 melanoma)?
The TGI was greater than 100 µM.

And the TGI (CCRF-CEM leukemia)?
The TGI was greater than 100 µM.

What about the TGI (HCT-15 colon) of the same molecule?
Its TGI is greater than 100 µM.

What about the TGI (COLO 205 colon) of the same molecule?
Its TGI is greater than 100 µM.

And the TGI (NCI-H226 lung)?
Its TGI is greater than 100 µM.

What about the TGI (SK-MEL-2 melanoma) of the same molecule?
Its TGI is greater than 100 µM.

What about the TGI (CAKI-1 renal) of the same molecule?
The TGI was greater than 100 µM.

What about the TGI (A549 NSCLC) of the same molecule?
The TGI was greater than 100 µM.

What about the TGI (SW-620 colon) of the same molecule?
The TGI was greater than 100 µM.

What about the TGI (HT29 colon) of the same molecule?
The TGI was greater than 100 µM.

`COc1ccccc1NC(=S)Nc1cc(C)ccn1` was tested. Which TGI (SK-MEL-5 melanoma) did it give?
The TGI was greater than 100 µM.

And the TGI (MALME-3M melanoma)?
Its TGI is greater than 100 µM.

And the TGI (RPMI-8226 leukemia)?
The TGI was greater than 100 µM.

And the TGI (SK-MEL-28 melanoma)?
Its TGI is greater than 100 µM.

And the TGI (HS 578T breast)?
Its TGI is greater than 100 µM.

And the TGI (SN12C renal)?
The TGI was greater than 100 µM.

And the TGI (T-47D breast)?
The TGI was greater than 100 µM.

What about the TGI (786-0 renal) of the same molecule?
Its TGI is greater than 100 µM.

And the TGI (SK-OV-3 ovarian)?
Its TGI is greater than 100 µM.

And the TGI (IGROV1 ovarian)?
Its TGI is greater than 100 µM.

What about the TGI (A498 renal) of the same molecule?
The TGI was greater than 100 µM.

And the TGI (OVCAR-4 ovarian)?
The TGI was greater than 100 µM.

And the TGI (OVCAR-8 ovarian)?
The TGI was greater than 100 µM.

And the TGI (MOLT-4 leukemia)?
The TGI was greater than 100 µM.

And the TGI (MDA-N)?
The TGI was greater than 100 µM.

And the TGI (OVCAR-5 ovarian)?
The TGI was greater than 100 µM.

And the TGI (MCF7 breast)?
The TGI was greater than 100 µM.

What about the TGI (PC-3 prostate) of the same molecule?
Its TGI is greater than 100 µM.

And the TGI (MDA-MB-231 breast)?
Its TGI is 60.7 µM.

What about the TGI (M14 melanoma) of the same molecule?
The TGI was greater than 100 µM.

And the TGI (LOX IMVI melanoma)?
Its TGI is greater than 100 µM.

And the TGI (K-562 leukemia)?
Its TGI is greater than 100 µM.

What about the TGI (U251 CNS) of the same molecule?
The TGI was greater than 100 µM.

And the TGI (HOP-62 NSCLC)?
Its TGI is greater than 100 µM.

What about the TGI (DU-145 prostate) of the same molecule?
The TGI was greater than 100 µM.

What about the TGI (SNB-75 CNS) of the same molecule?
Its TGI is greater than 100 µM.

What about the TGI (SF-268 CNS) of the same molecule?
The TGI was greater than 100 µM.

What about the TGI (BT-549 breast) of the same molecule?
Its TGI is greater than 100 µM.

And the TGI (SR leukemia)?
The TGI was greater than 100 µM.

And the TGI (HCT-116 colon)?
The TGI was greater than 100 µM.

And the TGI (NCI/ADR-RES ovarian)?
The TGI was greater than 100 µM.

And the TGI (NCI-H522 lung)?
Its TGI is greater than 100 µM.

What about the TGI (NCI-H460 lung) of the same molecule?
Its TGI is greater than 100 µM.

What about the TGI (MDA-MB-435) of the same molecule?
Its TGI is greater than 100 µM.

And the TGI (HL-60(TB) leukemia)?
Its TGI is greater than 100 µM.

And the TGI (RXF 393 renal)?
Its TGI is greater than 100 µM.

What about the TGI (UACC-257 melanoma) of the same molecule?
Its TGI is greater than 100 µM.

And the TGI (SNB-19 CNS)?
The TGI was greater than 100 µM.

And the TGI (OVCAR-3 ovarian)?
The TGI was greater than 100 µM.

And the TGI (EKVX NSCLC)?
The TGI was greater than 100 µM.

And the TGI (KM12 colon)?
Its TGI is greater than 100 µM.

What about the TGI (UACC-62 melanoma) of the same molecule?
The TGI was greater than 100 µM.

What about the TGI (CCRF-CEM leukemia) of the same molecule?
The TGI was greater than 100 µM.

What about the TGI (TK-10 renal) of the same molecule?
The TGI was greater than 100 µM.

And the TGI (HCT-15 colon)?
Its TGI is greater than 100 µM.

And the TGI (SF-295 CNS)?
The TGI was greater than 100 µM.

And the TGI (COLO 205 colon)?
The TGI was greater than 100 µM.

And the TGI (NCI-H226 lung)?
Its TGI is greater than 100 µM.

And the TGI (SK-MEL-2 melanoma)?
Its TGI is greater than 100 µM.

And the TGI (CAKI-1 renal)?
The TGI was greater than 100 µM.

What about the TGI (SF-539 CNS) of the same molecule?
Its TGI is greater than 100 µM.

And the TGI (A549 NSCLC)?
The TGI was greater than 100 µM.

And the TGI (SW-620 colon)?
Its TGI is greater than 100 µM.

And the TGI (UO-31 renal)?
The TGI was greater than 100 µM.

And the TGI (HT29 colon)?
Its TGI is greater than 100 µM.
